pIC50: −log10 of the molar value.

For the experiment, the target named is human CSNK1D (Homo sapiens (Human), UniProt P48730). As to the kind of experiment: CSNK1D assay (ADP-Glo, 1 μM ATP). In kind it is biochemical. As to conditions: median, Table 2, read-out: CSNK1D IC50 [mol/l] (median). As to the method: CSNK1D-inhibitory activity of compounds of the present invention in presence of 1 μM adenosine-tri-phosphate (ATP) was quantified employing the CSNK1D assay as described in the following paragraphs. In essence, the enzyme activity is measured by quantification of the adenosine-di-phosphate (ADP), which is generated as a co-product of the enzyme reaction, via the “ADP-Glo™ Kinase Assay” kit from the company Promega. This detection system works as follows: In a first step the ATP not consumed in the kinase reaction is quantitatively converted to cAMP employing an adenylate cyclase (“ADP-Glo-reagent”), then the adenylate cyclase is stopped and the ADP generated in the kinase reaction converted to ATP which generates in a luciferase-based reaction a glow-luminescence signal (“Kinase Detection Reagent”).
Sequence of human CSNK1D (P48730 whole entry): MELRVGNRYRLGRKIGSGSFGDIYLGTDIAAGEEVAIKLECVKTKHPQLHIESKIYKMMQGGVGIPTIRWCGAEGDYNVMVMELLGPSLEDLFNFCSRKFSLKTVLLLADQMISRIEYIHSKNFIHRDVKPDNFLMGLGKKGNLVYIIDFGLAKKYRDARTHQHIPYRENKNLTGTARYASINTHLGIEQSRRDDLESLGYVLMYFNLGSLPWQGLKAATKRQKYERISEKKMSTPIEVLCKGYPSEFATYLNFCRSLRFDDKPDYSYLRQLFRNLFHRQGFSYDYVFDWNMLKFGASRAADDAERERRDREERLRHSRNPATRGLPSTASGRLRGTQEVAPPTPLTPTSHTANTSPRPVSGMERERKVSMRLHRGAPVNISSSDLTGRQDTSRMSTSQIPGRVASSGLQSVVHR
Recombinant fusion protein of N-terminal Glutathion-S-Transferase (GST) and full-length human CSNK1D, expressed by baculovirus infected insect cells and purified via Glutathion affinity chromatography, was purchased from Life Technologies (product no. PV3665) and used as enzyme. As substrate for the kinase reaction the biotinylated peptide Btn-Ahx-SGSEGDSESGEEEG (C-terminus in amide form) was used which can be purchased e.g. from the company Biosyntan (Berlin-Buch, Germany).
For the assay 50 nl of a 100 fold concentrated solution of the test compound in DMSO was pipetted into a white 1536-well microtiter plate (Greiner Bio-One, Frickenhausen, Germany), 2 μL of a solution of CSNK1D in aqueous assay buffer [50 mM HEPES pH 7.5, 10% (v/v) glycerol, 10 mM MgCl2, 50 mM NaCl, 1 mM dithiothreitol, 0.01% (w/v) bovine serum albumin, 0.01% (v/v) Triton X-100] were added and the mixture was incubated for 15 min at 22° C. to allow pre-binding of the test compounds to the enzyme before the start of the kinase reaction. Then the kinase reaction was started by the addition of 3 μL of a solution of ATP (1.67 μM=>final conc. in the 5 μL assay volume is 1 μM) and peptide substrate (50 μM=>final conc. in the 5 μL assay volume is 30 μM) in assay buffer and the resulting mixture was incubated for a reaction time of 30 min at 22° C. The concentration of CSNK1D was adjusted depending of the activity of the enzyme lot and was chosen appropriate to have the assay in the linear range, a typical concentration is about 0.5 ng/μL. The reaction was stopped by the addition of 2.5 μL of “ADP-Glo-reagent” (1:1.5 fold diluted with water) and the resulting mixture was incubated at 22° C. for 1 h to convert the ATP not consumed in the kinase reaction completely […]. Subsequently 2.5 μL of the “kinase detection reagent” (1.2 fold more concentrated than recommended by the producer) were added, the resulting mixture was incubated at 22° C. for 1 h and then the luminescence measured with a suitable measurement instrument (e.g. Viewlux™ from Perkin-Elmer). The amount of emitted light was taken as a measure for the amount of ADP generated and thereby for the activity of the CSNK1D.
The data were normalised (enzyme reaction without inhibitor=0% inhibition, all other assay components but no enzyme=100% inhibition).
For orientation: In ADP-Glo the light output rises with the ADP produced.
On to `Cc1cc2[nH]c(-c3ccnc(NC(=O)C(CC(F)F)c4ccc(F)cc4)c3)c(Nc3ccccc3F)c2c(=O)n1C` (racemic) [Example 31, 4,4-difluoro-N-{4-[3-(2-fluoroanilino)-5,6-dimethyl-4-oxo-4,5-dihydro-1H-pyrrolo[3,2-c]pyridin-2-yl]pyridin-2-yl}-2-(4-fluorophenyl)butanamide], for which the pIC50 is 7.49.
In the case of `CN1CC(CC2CC2)c2[nH]c(-c3ccnc(NC(=O)Cc4ccc(F)cc4)c3)c(Nc3cscn3)c2C1=O` (racemic) [Example 49, N-{4-[(7RS)-7-(cyclopropylmethyl)-5-methyl-4-oxo-3-(1,3-thiazol-4-ylamino)-4,5,6,7-tetrahydro-1H-pyrrolo[3,2-c]pyridin-2-yl]pyridin-2-yl}-2-(4-fluorophenyl)acetamide] it was 7.85.
`Cn1ccc2[nH]c(-c3ccnc(NC(=O)C(CC(F)F)c4ccc(F)cc4)c3)c(Nc3ccccc3)c2c1=O` (single isomer, unassigned) [Example 30, N-[4-(3-anilino-5-methyl-4-oxo-4,5-dihydro-1H-pyrrolo[3,2-c]pyridin-2-yl)pyridin-2-yl]-4,4-difluoro-2-(4-fluorophenyl)butanamide]: the pIC50 is 8.15.
As for `CN1CC(CC(F)(F)F)c2[nH]c(-c3ccnc(NC(=O)C(CC(F)F)c4ccc(F)cc4)c3)c(Nc3cscn3)c2C1=O` (single isomer, unassigned) [Example 56, (2R or S)-4,4-difluoro-2-(4-fluorophenyl)-N-{4-[(7R or S)-5-methyl-4-oxo-3-[(1,3-thiazol-4-yl)amino]-7-(2,2,2-trifluoroethyl)-4,5,6,7-tetrahydro-1H-pyrrolo[3,2-c]pyridin-2-yl]pyridin-2-yl}butanamide], the pIC50 is 7.89.
For `CCc1c[nH]c(=O)c2c(Nc3ccccc3)c(-c3ccnc(NC(=O)C(CC(F)F)c4ccc(F)cc4)c3)[nH]c12` (racemic) [Example 5, N-[4-(3-anilino-7-ethyl-4-oxo-4,5-dihydro-1H-pyrrolo[3,2-c]pyridin-2-yl)pyridin-2-yl]-4,4-difluoro-2-(4-fluorophenyl)butanamide], the pIC50 is 8.19.
For the molecule `CC1CN(C)C(=O)c2c1[nH]c(-c1ccnc(NC(=O)Cc3ccc(F)cc3)c1)c2Nc1ccccc1` (single isomer, unassigned; (+)) [Example 8, (+)-N-{4-[3-anilino-5,7-dimethyl-4-oxo-4,5,6,7-tetrahydro-1H-pyrrolo[3,2-c]pyridin-2-yl]pyridin-2-yl}-2-(4-fluorophenyl)acetamide], the pIC50 is 7.59.
Consider `Cc1cn(C)c(=O)c2c(Nc3ccccc3)c(-c3ccnc(NC(=O)C(C)c4ccc(F)cc4)c3)[nH]c12` (single isomer, unassigned) [Example 41, N-[4-(3-anilino-5,7-dimethyl-4-oxo-4,5-dihydro-1H-pyrrolo[3,2-c]pyridin-2-yl)pyridin-2-yl]-2-(4-fluorophenyl)propanamide], for which the pIC50 was 7.06.
Consider `O=C1N[C@@H]2CCC[C@@H]2c2[nH]c(-c3ccnc(NC(=O)C(CC(F)F)c4ccc(F)cc4)c3)c(Nc3ccccc3)c21` (single isomer, unassigned; (+)) [Example 25, (+)-(2R or S)—N-{4-[cis-3-anilino-4-oxo-1,4,5,5a,6,7,8,8a-octahydrocyclopenta[b]pyrrolo[2,3-d]pyridin-2-yl]pyridin-2-yl}-4,4-difluoro-2-(4-fluorophenyl)butanamide], for which the pIC50 was 8.51.
Consider `CN1CC(CC(F)(F)F)c2[nH]c(-c3ccnc(NC(=O)Cc4ccc(F)cc4)c3)c(Nc3cscn3)c2C1=O` (single isomer, unassigned) [Example 48, 2-(4-fluorophenyl)-N-{4-[(7R or S)-5-methyl-4-oxo-3-(1,3-thiazol-4-ylamino)-7-(2,2,2-trifluoroethyl)-4,5,6,7-tetrahydro-1H-pyrrolo[3,2-c]pyridin-2-yl]pyridin-2-yl}acetamide], for which the pIC50 is 7.49.
In the case of `CN1CC(CC(F)(F)F)c2[nH]c(-c3ccnc(NC(=O)Cc4ccc(F)cc4)c3)c(Nc3cscn3)c2C1=O` (racemic) [Example 46, 2-(4-fluorophenyl)-N-{4-[(7RS)-5-methyl-4-oxo-3-(1,3-thiazol-4-ylamino)-7-(2,2,2-trifluoroethyl)-4,5,6,7-tetrahydro-1H-pyrrolo[3,2-c]pyridin-2-yl]pyridin-2-yl}acetamide], the pIC50 was 7.14.
For `Cc1cn(C)c(=O)c2c(Nc3ccccc3)c(-c3ccnc(NC(=O)C(CC(F)F)c4ccc(F)cc4)c3)[nH]c12` (racemic) [Example 11, N-[4-(3-anilino-5,7-dimethyl-4-oxo-4,5-dihydro-1H-pyrrolo[3,2-c]pyridin-2-yl)pyridin-2-yl]-4,4-difluoro-2-(4-fluorophenyl)butanamide], the pIC50 was 7.60.
Regarding `C[C@@H](C(=O)Nc1cc(-c2[nH]c3ccn(C)c(=O)c3c2Nc2ccccc2)ccn1)c1ccc(F)cc1` (single isomer, unassigned) [Example 27], the pIC50 is 7.55.
On to `CN1CC(CC(F)(F)F)c2[nH]c(-c3ccnc(NC(=O)Cc4ccc(F)cc4)c3)c(Nc3ccccc3)c2C1=O` (racemic) [Example 14, N-{4-[3-anilino-5-methyl-4-oxo-7-(2,2,2-trifluoroethyl)-4,5,6,7-tetrahydro-1H-pyrrolo[3,2-c]pyridin-2-yl]pyridin-2-yl}-2-(4-fluorophenyl)acetamide], for which the pIC50 was 8.29.
In the case of `CC1CN(C)C(=O)c2c1[nH]c(-c1ccnc(NC(=O)C(C)c3ccc(F)cc3)c1)c2Nc1ccccc1` (racemic) [Example 9, N-{4-[(7RS)-3-anilino-5,7-dimethyl-4-oxo-4,5,6,7-tetrahydro-1H-pyrrolo[3,2-c]pyridin-2-yl]pyridin-2-yl}-2-(4-fluorophenyl)propanamide], the pIC50 is 7.92.
For the molecule `CN1CC(CC2CC2)c2[nH]c(-c3ccnc(NC(=O)Cc4ccc(F)cc4)c3)c(Nc3cscn3)c2C1=O` (single isomer, unassigned) [Example 51, N-{4-[(7R or S)-7-(cyclopropylmethyl)-5-methyl-4-oxo-3-(1,3-thiazol-4-ylamino)-4,5,6,7-tetrahydro-1H-pyrrolo[3,2-c]pyridin-2-yl]pyridin-2-yl}-2-(4-fluorophenyl)acetamide], the pIC50 was 7.24.
As to `CN1CC(CC2CC2)c2[nH]c(-c3ccnc(NC(=O)Cc4ccc(F)cc4)c3)c(Nc3ccccc3)c2C1=O` (single isomer, unassigned) [Example 19, N-{4-[3-anilino-7-(cyclopropylmethyl)-5-methyl-4-oxo-4,5,6,7-tetrahydro-1H-pyrrolo[3,2-c]pyridin-2-yl]pyridin-2-yl}-2-(4-fluorophenyl)acetamide], the pIC50 is 8.19.
As for `Cc1cn(C)c(=O)c2c(Nc3ccccc3)c(-c3ccnc(NC(=O)C(CC(F)F)c4ccc(F)cc4)c3)[nH]c12` (single isomer, unassigned) [Example 12, N-[4-(3-anilino-5,7-dimethyl-4-oxo-4,5-dihydro-1H-pyrrolo[3,2-c]pyridin-2-yl)pyridin-2-yl]-4,4-difluoro-2-(4-fluorophenyl)butanamide], the pIC50 was 6.80.
With `Cn1ccc2[nH]c(-c3ccnc(NC(=O)C(CC(F)F)c4ccc(F)cc4)c3)c(Nc3ccccc3)c2c1=O` (single isomer, unassigned) [Example 29, N-[4-(3-anilino-5-methyl-4-oxo-4,5-dihydro-1H-pyrrolo[3,2-c]pyridin-2-yl)pyridin-2-yl]-4,4-difluoro-2-(4-fluorophenyl)butanamide], the pIC50 was 7.28.

(Values after patent US20230365554A1, “SUBSTITUTED PYRROLO-PYRIDINONE DERIVATIVES AND THERAPEUTIC USES THEREOF” (The Broad Institute, Inc., priority 2020, published 2023).)
